Assay results reported in patent US8877739B2, “Prophylactic agent or therapeutic agent for diabetes or obesity” (Ajinomoto Co., Inc., priority 2010, dated 2014).
pEC50: −log10 of the molar value.

Experiments:
Format in all cases: cell-based
[1] = test system: Human cecum-derived cell line NCI-H716; assay: CCK secretion promoting activity in NCI-H716 cells; details: 37° C., 30 minutes
Protocol: Human cecum-derived cell line NCI-H716 (ATCC No. CCL-251) was cultured in DMEM/Ham's F-12 medium containing 10% FBS at 37° C. in the presence of 5% CO2. The NCI-H716 cells were plated on a poly-L-lysine-coated 24-well plate in 600,000 cells/well, followed by culturing for 2 days. Prior to the addition of a sample, the wells were washed with Hepes buffer (20 mM Hepes, 146 mM NaCl, 5 mM KCl, 1.5 mM CaCl2, 1 mM MgSO4, 5.5 mM D-glucose, 0.02% BSA, pH 7.4). Then, 300 μl of a solution of the sample in the same buffer, and incubation was performed at 37° C. for 30 minutes. Compounds No. 1 (20 mM) No. 7 (2 mM), No. 21 (2 mM), No. 22 (2 mM), No. 33 (0.1 mM) and No. 34 (1 mM) listed in TABLE 2 were used as the sample. For control, Hepes buffer was used. After the supernatant was collected, the cells were precipitated by centrifugation (5000×g, 1 minute). The supernatant was recovered and lyophilized in a Speed Vac Concentrator from Savant Instruments Inc., and 60 μl of water was added thereto for dissolution. The CCK concentration in the solution was determined using an Enzyme Immunoassay Kit (EK-069-04; PHOENIX PHARMACEUTICALS).
The amount of CCK secreted when the measurement value of control obtained using the buffer was made 1 was expressed as a relative value.

[2] = test system: Human cecum-derived cell line NCI-H716; assay: GLP-1 secretion promoting activity in NCI-H716 cells; details: 37° C., 60 minutes
Protocol: Human cecum-derived cell line NCI-H716 (ATCC No. CCL-251) was cultured in 10% FBS-containing DMEM/Ham's F-12 medium at 37° C. in the presence of 5% CO2. The NCI-H716 cells were plated on a poly-D-lysine-coated 96-well plate in 100,000 cells/well, followed by culturing for 2 days. Prior to the addition of a sample, the wells were washed with Hepes buffer (20 mM Hepes, 146 mM NaCl, 5 mM KCl, 1.5 mM CaCl2, 1 mM MgSO4, 5.5 mM D-glucose, 0.2% BSA, pH 7.4). Then, 50 μl of a solution of the sample in the same buffer, and incubation was performed at 37° C. for 60 minutes. Compounds No. 1 (20 mM), No. 7 (20 mM), No. 21 (20 mM), No. 22 (20 mM), No. 33 (7.5 mM) and No. 34 (7.5 mM) listed in TABLE 1 were used as the sample. As for control, Hepes buffer was used. After the supernatant was collected, the cells were precipitated by centrifugation (5000×g, 1 minute) and the supernatant was recovered. The GLP-1 concentration in the supernatant was measured as follows by the method for GLP-1 quantification using the GLP-1 receptor gene expression cells.
Human GLP-1 receptor gene (SEQ ID NO: 1) was incorporated into pcDNA3.1 in a conventional manner (López de Maturana R, Willshaw A, Kuntzsch A, Rudolph R, Donnelly D. J. Biol. Chem. 2003 Mar. 21; 278 (12): 10195-200.) to construct human GLP-1 receptor gene expression plasmid hGLP-1R/pcDNA3.1. Also, the chimeric gene (SEQ ID NO: 2) of human Gα15 gene and human gustducin gene was incorporated into pcDNA3.1 to construct G-protein expression plasmid Gα15-gust/pcDNA3.1. Using a transfection reagent FuGene 6 (Roche Japan, Inc.), hGLP-1R/pcDNA3.1 and Gα15-gust44/pcDNA3.1 were cotransfected to HEK293E cells (ATCC No. CRL-10852). After incubation in a CO2 incubator for 4 to 6 hours, the cells were suspended in 5% FBS-containing DMEM/Ham F12 and plated onto a poly-D-lysine-coated 96-well plate in 70,000 cells/well. After incubation for 24 hours in a CO2 incubator, changes in fluorescence intensity were begun to monitor immediately after the addition of a sample, using a FlexStation (Molecular Devices) according to the Ca^2+ fluorescence indicator FLIPR Calcium 4 Assay Kit protocol (Molecular Devices). Concentration dependence in response to changes in fluorescence intensity of human GLP-1 (7-36 amide; Peptide Institute, Inc.) was determined and used as a standard curve for quantitative determination of the sample. The expression plasmid used here may be constructed by the methods described in, e.g., Proc. Natl. Acad. Sci. USA. 1992 Sep. 15; 89 (18): 8641-5, FEBS Letters Volume 373, Issue 29, October 1995, Pages 182-186), The Journal of Neuroscience, Aug. 13, 2003, 23 (19): 7376-7380), etc.
The amount of GLP-1 secreted when the measurement value of control obtained using the buffer was made 1 was expressed as a relative value.

[3] = molecular target: T1, human CaSR (Homo sapiens, UniProt P41180); assay: Evaluation of CaSR agonist activity (Ca2+ fluorescence, FLIPR, 293E cells transfected with hCaSR/pcDNA3.1)
T1 construct: expressed in transfected cells; host or cells: 293E cells (HEK293 cells expressing EBNA1, ATCC No. CRL-10852), transient transfection
T1 sequence (P41180 20-1078): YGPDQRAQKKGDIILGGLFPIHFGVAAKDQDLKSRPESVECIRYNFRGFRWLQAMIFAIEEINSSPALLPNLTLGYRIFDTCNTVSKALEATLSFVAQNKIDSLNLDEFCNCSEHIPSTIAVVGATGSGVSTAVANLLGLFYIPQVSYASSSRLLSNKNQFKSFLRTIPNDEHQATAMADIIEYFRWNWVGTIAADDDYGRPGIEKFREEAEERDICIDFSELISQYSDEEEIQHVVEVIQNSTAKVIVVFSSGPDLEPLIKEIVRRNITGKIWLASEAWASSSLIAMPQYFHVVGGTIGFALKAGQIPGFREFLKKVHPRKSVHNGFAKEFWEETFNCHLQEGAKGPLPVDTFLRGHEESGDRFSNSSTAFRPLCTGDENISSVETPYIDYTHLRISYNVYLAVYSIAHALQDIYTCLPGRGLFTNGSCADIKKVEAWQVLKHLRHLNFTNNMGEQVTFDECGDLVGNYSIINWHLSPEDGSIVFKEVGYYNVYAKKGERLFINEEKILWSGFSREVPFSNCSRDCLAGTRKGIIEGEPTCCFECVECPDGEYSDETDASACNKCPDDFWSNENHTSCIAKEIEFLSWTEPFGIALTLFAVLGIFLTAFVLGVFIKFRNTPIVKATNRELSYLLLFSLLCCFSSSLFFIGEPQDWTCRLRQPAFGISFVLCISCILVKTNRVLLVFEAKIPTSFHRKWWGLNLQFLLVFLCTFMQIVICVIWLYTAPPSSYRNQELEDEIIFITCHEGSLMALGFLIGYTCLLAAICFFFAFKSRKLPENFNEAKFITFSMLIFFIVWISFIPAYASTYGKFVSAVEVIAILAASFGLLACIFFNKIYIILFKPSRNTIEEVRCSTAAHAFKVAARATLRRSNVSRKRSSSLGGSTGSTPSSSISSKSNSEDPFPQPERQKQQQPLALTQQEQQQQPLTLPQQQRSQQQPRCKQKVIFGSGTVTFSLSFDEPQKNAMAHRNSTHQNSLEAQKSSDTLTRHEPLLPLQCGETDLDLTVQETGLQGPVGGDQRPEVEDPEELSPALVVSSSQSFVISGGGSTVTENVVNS
Protocol: The CaSR gene was prepared in accordance with the method described in Example 1 of WO 07/55393. Using the recombinant plasmid obtained, human CaSR expression plasmid hCaSR/pcDNA3.1 was prepared.
293E cells (HEK293 cells expressing EBNA1, ATCC No. CRL-10852) were cultured in DMEM (Dulbecco's Modified Eagle's Medium containing […], NACALAI TESQUE, INC.) containing 10% fetal calf serum, in the presence of 250 μg/ml of G418. The cells were spread on a Petri dish of 10 cm diameter in 1.8×10^6 cells/15 ml. After the cells were allowed to stand in a CO2 incubator (5% CO2, 37° C.) for 24 hours, human CaSR expression plasmid hCaSR/pcDNA3.1 was transfected with a transfection reagent Mirus TransIT 293 (Takara Bio Inc.). After the cells were allowed to stand in the CO2 incubator for 24 hours, the cells were collected by DMEM containing 10% fetal calf serum and plated on a poly-D-lysine coated 384 well plate (Falcon) in 15,000 cells/well. After the cells were allowed to stand in the CO2 incubator for 24 hours, the medium was removed. Then, 50 μL/well of Ca^2+ fluorescence indicator Calcium 4 Assay Kit (Molecular Devices) that was dissolved in an assay buffer (146 mM NaCl, 5 mM KCl, 1 mM MgSO4, 1 mg/ml glucose, 20 mM HEPES (pH 7.2) and 1.5 mM CaCl2) was added thereto, and allowed to stand at 37° C. for an hour and then at room temperature for 30 minutes to load the fluorescence indicator. The 384 well plate described above was transferred to FLIPR (Molecular Devices), and 12.5 μL/well of a compound that was dissolved in a 0.1% BSA containing-assay buffer was added thereto. Changes in fluorescence intensity were monitored for 3 minutes. Compound No. 20 was purchased from Bachem.

[4] = 293E cells expressing human CaSR, 1.5 mM CaCl2 assay buffer, Table 5
[5] = measured in a manner similar to Example III, Table 6

**Q.** Which results are given for `N[C@@H](CCC(=O)Nc1cccc(S(=O)(=O)O)c1)C(=O)O` [Compound 1, N^5-(3-sulfophenyl)-L-glutamine]?
**A.** Relative Value (amount of CCK secreted, buffer control = 1) ([1]; sample 20 mM): 2.16; Relative Value (amount of GLP-1 secreted, buffer control = 1) ([2]; sample 20 mM): 1.82

**Q.** Which “Relative Value (amount of CCK secreted, buffer control = 1)” value ([1]; sample 2 mM) does the source give for `N[C@@H](CCC(=O)Nc1cc(Cl)cc(S(=O)(=O)O)c1O)C(=O)O` [Compound 7, N^5-(5-chloro-2-hydroxy-3-sulfophenyl)-L-glutamine] here?
**A.** 1.99

**Q.** And the “Relative Value (amount of GLP-1 secreted, buffer control = 1)” value ([2]; sample 20 mM)?
**A.** 2.90

**Q.** With `Cc1c(Cl)cc(NC(=O)CC[C@H](N)C(=O)O)cc1S(=O)(=O)O` [Compound 21, N^5-(3-chloro-4-methyl-5-sulfophenyl)-L-glutamine] as the molecule, how does the “Relative Value (amount of CCK secreted, buffer control = 1)” value ([1]; sample 2 mM) read?
**A.** 4.54

**Q.** And the “Relative Value (amount of GLP-1 secreted, buffer control = 1)” value ([2]; sample 20 mM)?
**A.** 4.38

**Q.** What does the source list for `Cc1c(Cl)cc(S(=O)(=O)O)cc1NC(=O)CC[C@H](N)C(=O)O` [Compound 22, N^5-(3-chloro-2-methyl-5-sulfophenyl)-L-glutamine]?
**A.** Relative Value (amount of CCK secreted, buffer control = 1) ([1]; sample 2 mM): 2.49; Relative Value (amount of GLP-1 secreted, buffer control = 1) ([2]; sample 20 mM): 2.22

**Q.** Which “Relative Value (amount of CCK secreted, buffer control = 1)” value ([1]; sample 0.1 mM) does the source give for `Cc1c(Cl)cc(NC(=O)OC[C@H](N)C(=O)O)cc1S(=O)(=O)O` [Compound 33, O-{[(3-chloro-4-methyl-5-sulfophenyl)amino]carbonyl}-L-serine] here?
**A.** 1.51

**Q.** And the “Relative Value (amount of GLP-1 secreted, buffer control = 1)” value ([2]; sample 7.5 mM)?
**A.** 1.87

**Q.** Which “Relative Value (amount of CCK secreted, buffer control = 1)” value ([1]; sample 1 mM) does the source give for `N[C@@H](COC(=O)Nc1cc(Cl)cc(S(=O)(=O)O)c1O)C(=O)O` [Compound 34] here?
**A.** 1.77

**Q.** And the “Relative Value (amount of GLP-1 secreted, buffer control = 1)” value ([2]; sample 7.5 mM)?
**A.** 2.88

**Q.** `N[C@@H](CCC(=O)N(O)c1cccc(S(=O)(=O)O)c1)C(=O)O` [Compound 42, N^5-hydroxy-N^5-(3-sulfophenyl)-L-glutamine] was tested. Which pEC50 [3, 4] did it give?
**A.** 7.51

**Q.** With `N[C@@H](COC(=O)N(O)c1cccc(S(=O)(=O)O)c1)C(=O)O` [Compound 43, 0-{[hydroxy(3-sulfophenyl)amino]carbonyl}-L-serine] as the molecule, how does the pEC50 [3, 4] read?
**A.** 7.37

**Q.** With `COC(=O)[C@@H](N)CCC(=O)Nc1cccc(S(=O)(=O)O)c1` [Compound 44, 3-[(4S)-4-amino-5-methoxy-5-oxopentanamido]benzene-1-sulfonic acid] as the molecule, how does the pEC50 [3, 5] read?
**A.** 7.64

**Q.** How did the pEC50 [3, 5] turn out when `COC(=O)[C@@H](N)COC(=O)Nc1cc(Cl)c(C)c(S(=O)(=O)O)c1` [Compound 49, 5-({[(2S)-2-amino-3-methoxy-3-oxopropoxy]carbonyl}amino)-3-chloro-2-methylbenzene-1-sulfonic acid] was run?
**A.** 6.96

**Q.** How did the pEC50 [3, 5] turn out when `CCOC(=O)[C@@H](N)CCC(=O)Nc1cc(Cl)cc(S(=O)(=O)O)c1O` [Compound 50, 3-[(4S)-4-amino-5-ethoxy-5-oxopentanamido]-5-chloro-2-hydroxybenzene-1-sulfonic acid] was run?
**A.** 8.40
